Reference: ChEMBL document CHEMBL3244341, “Potential antiinflammatory compounds. 2. Acidic antiinflammatory 1,2-benzisoxazoles” (J Med Chem, 1979)
Activity calls are given as the source filed them. No cut-off for these calls is given here.

Experiments:
[1] = system: Rattus norvegicus; test: Antiinflammatory activity in rat assessed as reduction in carrageenan-induced foot edema at 50 mg/kg, po relative to hydrocortisone-treated control; format: functional
[2] = system: Rattus norvegicus; test: Antiinflammatory activity in rat assessed as reduction in carrageenan-induced foot edema at 50 mg/kg, po; format: functional
[3] = Toxicity in po dosed mouse; format: organism-based; conditions: in vivo
[4] = system: Rattus norvegicus; test: Antiinflammatory activity in rat assessed as reduction in carrageenan-induced foot edema at 50 mg/kg, po relative to phenylbutazone-treated control; format: functional
[5] = system: Rattus norvegicus; test: Antiinflammatory activity in rat assessed as reduction in carrageenan-induced foot edema at 50 mg/kg, po bid administered 3 hrs and again 0.5 hrs prior to carrageenan challenge relative to phenylbutazone-treated control; format: functional
[6] = system: Rattus norvegicus; test: Antiinflammatory activity in rat assessed as reduction in carrageenan-induced foot edema at 50 mg/kg, po bid administered 3 hrs and again 0.5 hrs prior to carrageenan challenge; format: functional
[7] = system: Rattus norvegicus; test: Antiinflammatory activity in rat assessed as reduction in carrageenan-induced foot edema at 25 mg/kg, po; format: functional
[8] = species: Rattus norvegicus; test: Antiinflammatory activity against mycobacterial adjuvant-induced arthritis in albino rat assessed as reduction in foot swelling by micrometer analysis; format: functional, organism-based

Structure (SMILES)	inhibition in vivo at 50 mg/kg [1] [%]	inhibition in vivo at 50 mg/kg [2] [%]	LD50 [3] [mg/kg]	inhibition in vivo at 50 mg/kg [4] [%]	inhibition in vivo at 50 mg/kg [5] [%]	inhibition in vivo at 50 mg/kg [6] [%]	inhibition in vivo at 25 mg/kg [7] [%]	inhibition [8]
CC(C(=O)O)c1ccc2onc(-c3ccc(Cl)cc3)c2c1 (configuration not stated)	38	18	800					
CC(C(=O)O)c1ccc2c(-c3ccc(F)cc3)noc2c1 (configuration not stated)		37	400	57				
CC(C(=O)O)c1ccc2c(-c3ccc(Cl)cc3)noc2c1 (configuration not stated)	38	46	600					
CC(C(=O)O)c1cccc2c(-c3ccccc3)noc12 (configuration not stated)		42	1600	32				
O=C(O)Cc1ccc2onc(-c3ccc(Cl)cc3)c2c1			600		36	22		
O=C(O)Cc1cccc2c(-c3ccc(Cl)cc3)noc12		36	600	49				
CC(C(=O)O)c1cccc2c(-c3ccc(Cl)cc3)noc12 (configuration not stated)			200	48			46	Active
